Experimental data reported in patent publication US20240174690A1, “ANNULATED 2-AMINO-3-CYANO THIOPHENES AND DERIVATIVES FOR THE TREATMENT OF CANCER” (BOEHRINGER INGELHEIM INTERNATIONAL GMBH, priority 2021, published 2024).

Key:
KRAS (WT)::SOS1 = KRAS (WT)::SOS1 (Homo sapiens (Human), UniProt P01116, C118S); assay: KRAS::SOS1 AlphaScreen binding assay, KRAS WT
How it was run: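 KRAS 1-169 (biotinylated avi-tag) with GST-SOS1 564-1049 and 10 µM GDP in PBS/0.1% BSA/0.05% Tween 20: WT and G13D 10 nM each with 10 nM SOS1; G12D 10 nM and G12C 7.5 nM with 5 nM SOS1. After 30 min, glutathione acceptor/streptavidin donor beads were added for 60 min at RT in the dark, then AlphaScreen read; 4-parameter IC50.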

KRAS (G12V)::SOS1 = KRAS (G12V)::SOS1 (Homo sapiens (Human), UniProt P01116, C118S/G12V); assay: KRAS::SOS1 AlphaScreen binding assay, KRAS G12V
Excerpt: (§1) This assay can be used to examine the potency with which compounds according to the invention binding to (mutated) KRAS inhibit the protein-protein interaction between SOS1 and (mutated) KRAS e.g., KRAS WT, KRAS G12C, KRAS G12D, KRAS G12V, KRAS G13D. […] Low IC50 values in this assay setting are indicative of strong inhibition of protein-protein interaction between SOS1 and KRAS:
(§2) These assays measure the inhibitory effect of compounds on KRAS mutant protein-protein interactions using the Alpha Screen technology by Perkin Elmer.
(§3) The following (mutant) enzyme forms of KRAS and interacting proteins are used in these assays at the given concentrations: • KRAS (G12D) 1-169, N-terminal 6His-tag, C-terminal avi-tag (Xtal BioStructures, Inc.); final assay concentration 10 nM and SOS1 564-1049, N-terminal 229 GST-tag, TEV cleavage site (Viva Biotech Ltd); final assay concentration 5 nM; • KRAS (G12C) 1-169, N-terminal 6His-tag for purification, cleaved off, C-terminal avi-tag, biotinylated, mutations: C51S, C80L, C118S (in house); final assay concentration 7.5 nM and SOS1 564-1049, N-terminal 229 GST-tag, TEV cleavage site (Viva Biotech Ltd); final assay concentration 5 nM; • KRAS (G12V) 1-169, N-terminal 6His-tag for purification, cleaved off, C-terminal avi-tag, biotinylated, TEV cleavage site, mutation: C118S, GDP loaded (in house); final assay concentration 10 nM and SOS1 564-1049, N-terminal 229 GST-tag, TEV cleavage site (Viva Biotech Ltd); final assay concentration 10 nM; • KRAS (G13D) 1-169, N-terminal 6His-tag for purification, cleaved off, C-terminal avi-tag, biotinylated, TEV cleavage site, mutation: C118S, GDP loaded (in house); final assay concentration 10 nM and SOS1 564-1049, N-terminal 229 GST-tag, TEV cleavage site (Viva Biotech Ltd); final assay concentration 10 nM; • KRAS (WT) 1-169, N-terminal 6His-tag for purification, cleaved off, C-terminal avi-tag, biotinylated, TEV cleavage site, mutation: C118S, GDP loaded (in house); final assay concentration 10 nM and SOS1 564-1049, N-terminal 229 GST-tag, TEV cleavage site (Viva Biotech Ltd); final assay concentration 10 nM.
(§4) Test compounds dissolved in DMSO are dispensed onto assay plates (Proxiplate 384 PLUS, white, PerkinElmer; 6008289) using an Access Labcyte Workstation with the Labcyte Echo 55×. For the chosen highest assay concentration of 100 μM, 150 nL of compound solution are transferred from a 10 mM DMSO compound stock solution. A series of eleven fivefold dilutions per compound are transferred to the assay plate, compound dilutions are tested in duplicates. DMSO are added as backfill to a total volume of 150 nL.
(§5) The assays run on a fully automated robotic system in a darkened room below 100 Lux. To 150 nl of compound dilution 10 μl of a mix including KRAS mutant protein, SOS1 (final assay concentrations see above) and GDP nucleotide (Sigma G7127; final assay concentration 10 μM) in assay buffer (1×PBS, 0.1% BSA, 0.05% Tween 20) are added into columns 1-24.
(§6) After 30 minutes incubation time 5 μl of Alpha Screen bead mix in assay buffer are added into columns 1-23. Bead mix consists of AlphaLISA Glutathione Acceptor Beads (PerkinElmer, Cat No AL109) and AlphaScreen Streptavidin Donor Beads (PerkinElmer Cat No 6760002) in assay buffer at a final assay concentration of 10 μg/ml each.
(§7) Plates are kept at room temperature in a darkened incubator. After an additional 60 minutes incubation time the signal is measured in a PerkinElmer Envision HTS Multilabel Reader using the AlphaScreen specs from PerkinElmer.
(§8) Each plate contains up to 16 wells of a negative control depending on the dilution procedure (platewise or serial) (DMSO instead of test compound; with KRAS mutant::SOS1 GDP mix and bead mix; column 23) and 16 wells of a positive control (DMSO instead of test compound; with KRAS mutant::SOS1 GDP mix w/o bead mix; column 24).
(§9) As internal control known inhibitors of KRAS mutant::SOS1 interaction can be measured on each compound plate. […]

KRAS (G13D)::SOS1 = KRAS (G13D)::SOS1 (Homo sapiens (Human), UniProt P01116, C118S/G13D); assay: KRAS::SOS1 AlphaScreen binding assay, KRAS G13D
Excerpt: as §1, §2, §3, §4, §5, §6, §7, §8, §9

A375 cells = assay: A375 CTG proliferation assay (120 h) (melanoma, wt, B-Raf mutant, negative control); type: cell-based; details: Homo sapiens, A-375, CTG 120 h
Method: A375 CTG Proliferation Assay (120 h) (Melanoma, Wt, B-Raf Mutant, Negative Control)
A375 cells (ATCC CRL-1619) are dispensed into 384-well plates, flat and clear bottom (Greiner, PNr. 781091) at a density of 300 cells per well in 60 μL DMEM (Sigma 06429)+10% Fetal Calf Serum (HyClone, PNr.: SH30084.03) and incubated at 37° C. in a CO2 incubator overnight. The next day, compounds (10 mM stock in DMSO) are added at logarithmic dose series using the HP Digital Dispenser D300 (Tecan), including DMSO controls. Plates are incubated for 120 h, and cell viability is measured using CellTiter-Glo luminescent cell viability reagent (Promega product code G7570). Viability (stated as percent of control) is defined as relative luminescence units RLU of each well divided by the RLU of cells in DMSO controls. IC50 values are determined from viability measurements by non-linear regression using a four-parameter model.

KRAS (G13D)::SOS1, sequence (P01116 other isoform, or with tags, fused parts or gaps G13D/C118S): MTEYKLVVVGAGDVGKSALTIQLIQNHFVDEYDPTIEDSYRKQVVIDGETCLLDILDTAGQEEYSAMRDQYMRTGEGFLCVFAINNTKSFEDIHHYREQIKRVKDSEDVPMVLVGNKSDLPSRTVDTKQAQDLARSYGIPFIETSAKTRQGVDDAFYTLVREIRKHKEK
KRAS (G12V)::SOS1, sequence (P01116 other isoform, or with tags, fused parts or gaps G12V/C118S): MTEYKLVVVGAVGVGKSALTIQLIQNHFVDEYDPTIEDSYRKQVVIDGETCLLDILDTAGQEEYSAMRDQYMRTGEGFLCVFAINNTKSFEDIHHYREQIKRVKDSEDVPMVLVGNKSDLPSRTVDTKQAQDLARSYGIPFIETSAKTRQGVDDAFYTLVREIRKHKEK
KRAS (WT)::SOS1, sequence (P01116 other isoform, or with tags, fused parts or gaps C118S): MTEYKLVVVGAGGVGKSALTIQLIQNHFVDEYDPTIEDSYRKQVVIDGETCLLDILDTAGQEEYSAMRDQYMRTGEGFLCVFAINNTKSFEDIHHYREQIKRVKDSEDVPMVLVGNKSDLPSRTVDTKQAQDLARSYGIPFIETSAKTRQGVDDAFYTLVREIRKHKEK

Compound	IC50 (KRAS (WT)::SOS1) [nM]	IC50 (KRAS (G12V)::SOS1) [nM]	IC50 (KRAS (G13D)::SOS1) [nM]	IC50 (A375 cells) [nM]
C[C@H](Oc1cc(N2CCN(C)C3(CC3)C2)nc(-c2onc3c2CCC[C@@]32CCCc3sc(N)c(C#N)c32)n1)[C@@H]1CCCN1C [I-41]	5	–	–	–
C[C@H](Oc1cc(N2CC3CCC(C2)N3)nc(-c2noc3c2CCC[C@@]32CCCc3sc(N)c(C#N)c32)n1)[C@@H]1CCCN1C [II-34]	8	17	38	–
C[C@H](Oc1nc(-c2noc3c2CCC[C@@]32CCCc3sc(N)c(C#N)c32)cc(N2C[C@H](C)N[C@@H](C)C2)n1)[C@@H]1CCCN1C [II-46]	53	–	–	–
C[C@H](Oc1cc(N2CCN(C)C3(COC3)C2)nc(-c2noc3c2CCC[C@@]32CCCc3sc(N)c(C#N)c32)n1)[C@@H]1CCCN1C [II-13]	3	3	8	–
C[C@H](Oc1cc(-c2ccn(C[C@@H](C)O)n2)nc(-c2onc3c2CCC[C@@]32CCCc3sc(N)c(C#N)c32)n1)[C@@H]1CCCN1C [I-30]	3	–	–	–
C[C@H](Oc1cc(-c2cnn(C)n2)nc(-c2noc3c2CCC[C@@]32CCCc3sc(N)c(C#N)c32)n1)[C@@H]1C[C@@H](F)CN1C [II-28]	–	12	–	–
C[C@H](Oc1cc(N2CCNC3(CCC3)C2)nc(-c2onc3c2CCC[C@@]32CCCc3sc(N)c(C#N)c32)n1)[C@@H]1CCCN1C [I-3]	7	–	–	–
C[C@H](Oc1cc(N2CCN(C)C3(CC3)C2)nc(-c2onc3c2CCC[C@@]32CCCc3sc(N)c(C#N)c32)n1)[C@@H]1C[C@@H](F)CN1C [I-39]	11	–	146	–
C[C@H](Oc1cc(-n2ccc(C(=O)NC3COC3)n2)nc(-c2noc3c2CCC[C@@]32CCCc3sc(N)c(C#N)c32)n1)[C@@H]1CCCN1C [II-25]	16	7	11	–
C[C@H](Oc1cc(N2C[C@@H](N(C)C)[C@@H](F)C2)nc(-c2noc3c2CCC[C@@]32CCCc3sc(N)c(C#N)c32)n1)[C@@H]1CCCN1C [II-11]	4	–	–	–
C[C@H](Oc1cc(N2CC[C@H](N3CCCCC3)C2)nc(-c2noc3c2CCC[C@@]32CCCc3sc(N)c(C#N)c32)n1)[C@@H]1CCCN1C [II-12]	15	–	–	–
C[C@H](Oc1nc(-c2onc3c2CCC[C@@]32CCCc3sc(N)c(C#N)c32)cc(N2CCNC3(CC3)C2)n1)[C@@H]1CCCN1C [I-2]	42	–	–	–
C[C@@H]1CN(c2cc(O[C@@H](C)[C@@H]3C[C@@H](F)CN3C)nc(-c3noc4c3CCC[C@@]43CCCc4sc(N)c(C#N)c43)n2)CC2(CC2)N1 [II-17]	5	–	–	–
C[C@H](Oc1cc(-c2ccn(C3COC3)n2)nc(-c2onc3c2CCC[C@@]32CCCc3sc(N)c(C#N)c32)n1)[C@@H]1CCCN1C [I-34]	4	–	–	–
[2H]C([2H])([2H])N1C[C@H](F)C[C@H]1[C@H](C)Oc1cc(N2CCNC3(CC3)C2)nc(-c2noc3c2CCC[C@@]32CCCc3sc(N)c(C#N)c32)n1 [II-208]	4	–	–	–
C[C@H](Oc1cc(-c2ccn(C)n2)nc(-c2noc3c2CCC[C@@]32CCCc3sc(N)c(C#N)c32)n1)[C@@H]1C[C@@H](F)CN1C [II-27]	–	–	–	> 3000
CN[C@H]1CCN(c2cc(O[C@@H](C)[C@@H]3CCCN3C)nc(-c3noc4c3CCC[C@@]43CCCc4sc(N)c(C#N)c43)n2)C1 [II-35]	13	–	–	–
C[C@H](Oc1cc(N2CCNC3(COC3)C2)nc(-c2noc3c2CCC[C@@]32CCCc3sc(N)c(C#N)c32)n1)[C@@H]1CCCN1C [II-31]	–	–	8	–
C[C@H](Oc1cc(N2CCNC3(CC3)C2)nc(-c2onc3c2CCC[C@@]32CCCc3sc(N)c(C#N)c32)n1)[C@@H]1C[C@@H](F)CN1C [I-45]	6	8	–	–
C[C@H](Oc1cc(N2CCNC3(COC3)C2)nc(-c2onc3c2CCC[C@@]32CCCc3sc(N)c(C#N)c32)n1)[C@@H]1CCCN1C [I-4]	3	8	20	–
C[C@H](Oc1cc(N2C[C@H](C)N(C)[C@@H](C)C2)nc(-c2onc3c2CCC[C@@]32CCCc3sc(N)c(C#N)c32)n1)[C@@H]1CCCN1C [I-43]	–	8	–	–
C[C@H](Oc1cc(N2CC[C@H](N(C)C)C2)nc(-c2noc3c2CCC[C@@]32CCCc3sc(N)c(C#N)c32)n1)[C@@H]1C[C@@H](F)CN1C [II-15]	11	39	71	–
Cc1ccc(-c2cc(O[C@@H](C)[C@@H]3CCCN3C)nc(-c3onc4c3CCC[C@@]43CCCc4sc(N)c(C#N)c43)n2)cn1 [I-28]	18	3	–	–
C[C@H](Oc1cc(-c2ccn([C@H]3CCCOC3)n2)nc(-c2noc3c2CCC[C@@]32CCCc3sc(N)c(C#N)c32)n1)[C@@H]1CCCN1C [II-42]	5	2	–	–
C[C@H](Oc1cc(N2CCC(N(C)C)CC2)nc(-c2noc3c2CCC[C@@]32CCCc3sc(N)c(C#N)c32)n1)[C@@H]1CCCN1C [II-48]	34	–	–	–
C[C@H](Oc1cc(N2CCN(C)C3(COC3)C2)nc(-c2onc3c2CCC[C@@]32CCCc3sc(N)c(C#N)c32)n1)[C@@H]1C[C@@H](F)CN1C [I-37]	4	–	–	–
C[C@H](Oc1cc(-n2ccc(C(=O)NC3(C)COC3)n2)nc(-c2noc3c2CCC[C@@]32CCCc3sc(N)c(C#N)c32)n1)[C@@H]1CCCN1C [II-26]	3	2	8	–
C[C@H](Oc1cc(N2CC[C@H](N3CCCC3)C2)nc(-c2noc3c2CCC[C@@]32CCCc3sc(N)c(C#N)c32)n1)[C@@H]1CCCN1C [II-14]	15	–	–	–
C[C@H](Oc1cc(N2C[C@H](C)NC3(CC3)C2)nc(-c2noc3c2CCC[C@@]32CCCc3sc(N)c(C#N)c32)n1)[C@@H]1C[C@@H](F)CN1C [II-18]	6	–	–	–
